Test results published in patent US9050341B2, “Methods of treating drug resistant and other tumors by administering 6,7-dialkoxy quinazoline derivatives” (NATCO PHARMA LIMITED, priority 2009, dated 2015).

What was measured:
Assay in all cases: KinomeScan kinase profiling
Assay type in all cases: binding
[1] = target: T1, FLT3 (D835H) (Homo sapiens, UniProt P36888, D835H)
T1 construct: host or cells: E. coli host derived from BL21, infected with T7 phage
From the text: (§1) The kinases were ABL1(F317L), ABL1(H396P), ABL1(Q252H), ABL1(Y253F), ADCK3, ADCK4, ALK, ARK5, AXL, BLK, BRSK2, CDK7, CIT, CLK4, CSNK1D, CSNK1E, DAPK1, DAPK3, DCAMKL3, DMPK, EGFR, EGFR(E746-A750DEL), EGFR(G719C), EGFR(G719S), EGFR(L747-E749DEL, A750P), EGFR(L747-S752 DEL, P753S), EGFR(L747-T751DEL, Sin), EGFR(L858R), EGFR(L861Q), EGFR(S752-I759DEL), EPHA5, EPHA6, ERBB2, ERBB4, ERK3, ERK4, FGR, FLT3(D835H), FLT3(D835Y), FLT3(ITD), FLT3(N841 I), FRK, GAK, GCN2(KIN.DOM.2, S808G), HCK, IRAK3, JAK1(KIN.DOM.1), KIT, KIT(D816V), KIT(V559D), KIT(V559D,T670I), LCK, LOK, LTK, LYN, MAP3K3, MAP4K4, MAP4K5, MET, MINK, MKNK1, MKNK2, MST4, MYLK2, PDGFRB, PIM3, PKN2, PRKD1, PRKD2, PRKD3, PRKG1, RIPK2, RPS6KA4(KIN.DOM.2), SIK2, SLK, SNARK, SRC, STK36, TNIK, TNNI3K, TYK2(KIN.DOM.2).
(§2) Kinase assays: Assays were performed as described in Fabian et al. (2005) Nature Biotechnology, vol. 23, p. 329. Kinase-tagged T7 phage strains were grown in parallel in 24 or 96-well blocks in an E. coli host derived from the BL21 strain. E. coli were grown to log-phase and infected with T7 phage from a frozen stock (multiplicity of infection ˜0.1) and incubated with shaking at 32° C. until lysis (˜90 minutes). The lysates were centrifuged and filtered to remove cell debris. […] The liganded beads were blocked with excess biotin and washed with blocking buffer (SeaBlock (Pierce), 1% BSA, 0.05% Tween 20, 1 mM DTT) to remove unbound ligand and to reduce non-specific phage binding.
(§3) Test compounds were prepared as 40× stocks in DMSO and diluted into the aqueous environment. 2.5% DMSO was added to control assays lacking a test compound. All reactions were performed in polystyrene 96-well plates that had been pretreated with blocking buffer in a final volume of 0.04 ml. […] The phage titer in the eluates was measured by quantitative PCR.

[2] = target: T2, IKK-alpha (Homo sapiens, UniProt O15111)
T2 construct: host or cells: T7 phage in E. coli host derived from BL21
From the text: as §1, §2, §3

[3] = target: T3, TRKC (Homo sapiens, UniProt Q16288)
T3 construct: purchased Ambit Biosciences Corp (KinomeScan); host or cells: E. coli host derived from the BL21 strain (T7 phage lysate)
From the text: as §1, §2, §3

[4] = target: T4, CSNK1E (Homo sapiens, UniProt P49674)
T4 construct: host or cells: T7 phage in E. coli (BL21-derived)
From the text: as §1, §2, §3

[5] = target: T5, RPS6KA1 (Kin.Dom.-1-N-terminal) (Homo sapiens, UniProt Q15418)
T5 construct: RPS6KA1 (Kin.Dom.-1-N-terminal); host or cells: E. coli host derived from BL21, T7 phage lysate
From the text: as §1, §2, §3

[6] = target: T6, SRPK2 (Homo sapiens, UniProt P78362)
T6 construct: host or cells: E. coli host derived from the BL21 strain, T7 phage lysate
From the text: as §1, §2, §3

[7] = target: T7, YANK3 (Homo sapiens, UniProt Q86UX6)
T7 construct: purchased Ambit Biosciences Corp (KinomeScan); host or cells: E. coli host derived from the BL21 strain (T7 phage lysate)
From the text: as §1, §2, §3

[8] = target: T8, TIE2 (Homo sapiens, UniProt Q02763)
T8 construct: purchased Ambit Biosciences Corp (KinomeScan); host or cells: E. coli host derived from the BL21 strain (T7 phage lysate)
From the text: as §1, §2, §3

[9] = target: T9, MEK4 (Homo sapiens, UniProt P45985)
T9 construct: host or cells: E. coli derived from BL21, infected with T7 phage
From the text: as §1, §2, §3

[10] = target: T10, CSNK2A1 (Homo sapiens, UniProt P68400)
T10 construct: purchased Ambit Biosciences Corp (KinomeScan); host or cells: T7 phage in E. coli host derived from BL21
From the text: as §1, §2, §3

[11] = target: T11, WEE1 (Homo sapiens, UniProt P30291)
T11 construct: purchased Ambit Biosciences Corp (KinomeScan); host or cells: E. coli host derived from the BL21 strain (T7 phage lysate)
From the text: as §1, §2, §3

[12] = target: T12, HIPK1 (Homo sapiens, UniProt Q86Z02)
T12 construct: host or cells: E. coli host derived from BL21, infected with T7 phage
From the text: as §1, §2, §3

[13] = target: T13, PRKCE (Homo sapiens, UniProt Q02156)
T13 construct: purchased Ambit Biosciences Corp (KinomeScan); host or cells: E. coli host derived from BL21, infected with T7 phage
From the text: as §1, §2, §3

[14] = target: T14, LIMK2 (Homo sapiens, UniProt P53671)
T14 construct: host or cells: T7 phage in E. coli host derived from BL21
From the text: as §1, §2, §3

[15] = target: T15, LTK (Homo sapiens, UniProt P29376)
T15 construct: host or cells: E. coli derived from BL21, infected with T7 phage
From the text: as §1, §2, §3

[16] = target: T16, SgK085 (Homo sapiens, UniProt Q86YV6)
T16 construct: host or cells: E. coli host derived from the BL21 strain, T7 phage lysate
From the text: as §1, §2, §3

[17] = target: T17, EPHB3 (Homo sapiens, UniProt P54753)
T17 construct: host or cells: E. coli host derived from BL21, T7 phage lysate
From the text: as §1, §2, §3

[18] = target: T18, CSNK1A1L (Homo sapiens, UniProt Q8N752)
T18 construct: host or cells: T7 phage in E. coli (BL21-derived)
From the text: as §1, §2, §3

[19] = target: T19, CSF1R (Homo sapiens, UniProt P07333)
T19 construct: host or cells: T7 phage in E. coli (BL21-derived)
From the text: as §1, §2, §3

[20] = target: T20, GCN2 (Kin.Dom.2.S808G) (Homo sapiens, UniProt Q9P2K8, S808G)
T20 construct: GCN2(KIN.DOM.2, S808G); host or cells: E. coli host derived from BL21, infected with T7 phage
From the text: as §1, §2, §3

[21] = target: T21, EPHA6 (Homo sapiens, UniProt Q9UF33)
T21 construct: host or cells: E. coli host derived from BL21, T7 phage lysate
From the text: as §1, §2, §3

[22] = target: T22, EGFR (L747-T751del, Sins) (Homo sapiens, UniProt P00533, DEL747-750/T751S)
T22 construct: host or cells: E. coli host derived from BL21, T7 phage lysate
From the text: as §1, §2, §3

T6 sequence (P78362 whole entry): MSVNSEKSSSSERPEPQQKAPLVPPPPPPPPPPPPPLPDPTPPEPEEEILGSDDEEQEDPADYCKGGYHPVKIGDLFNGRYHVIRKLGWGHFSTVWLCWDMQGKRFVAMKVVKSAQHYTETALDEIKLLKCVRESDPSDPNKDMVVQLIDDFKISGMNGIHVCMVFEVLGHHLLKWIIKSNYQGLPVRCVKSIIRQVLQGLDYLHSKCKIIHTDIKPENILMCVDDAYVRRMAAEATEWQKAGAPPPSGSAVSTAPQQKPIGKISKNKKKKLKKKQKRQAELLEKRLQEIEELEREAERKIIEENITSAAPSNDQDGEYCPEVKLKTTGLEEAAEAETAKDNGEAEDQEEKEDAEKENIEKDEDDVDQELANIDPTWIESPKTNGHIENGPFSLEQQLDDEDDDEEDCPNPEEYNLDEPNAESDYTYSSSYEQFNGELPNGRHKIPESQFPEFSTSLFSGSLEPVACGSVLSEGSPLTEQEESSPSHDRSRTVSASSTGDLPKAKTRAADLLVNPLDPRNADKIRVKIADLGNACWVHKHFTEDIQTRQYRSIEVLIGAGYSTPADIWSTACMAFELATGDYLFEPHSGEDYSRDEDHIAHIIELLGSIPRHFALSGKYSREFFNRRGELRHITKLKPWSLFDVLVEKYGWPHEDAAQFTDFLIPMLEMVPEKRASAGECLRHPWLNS
T18 sequence (Q8N752 whole entry): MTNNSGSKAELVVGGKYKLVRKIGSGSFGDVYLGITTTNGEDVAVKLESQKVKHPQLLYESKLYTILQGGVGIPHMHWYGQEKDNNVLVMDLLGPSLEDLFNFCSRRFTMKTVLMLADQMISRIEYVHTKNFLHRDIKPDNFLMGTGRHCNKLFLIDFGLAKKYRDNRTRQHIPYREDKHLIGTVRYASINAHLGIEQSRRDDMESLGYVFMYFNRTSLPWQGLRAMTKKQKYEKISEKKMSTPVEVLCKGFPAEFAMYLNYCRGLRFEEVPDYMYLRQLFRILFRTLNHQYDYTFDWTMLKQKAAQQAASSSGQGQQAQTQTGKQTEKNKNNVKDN
T11 sequence (P30291 whole entry): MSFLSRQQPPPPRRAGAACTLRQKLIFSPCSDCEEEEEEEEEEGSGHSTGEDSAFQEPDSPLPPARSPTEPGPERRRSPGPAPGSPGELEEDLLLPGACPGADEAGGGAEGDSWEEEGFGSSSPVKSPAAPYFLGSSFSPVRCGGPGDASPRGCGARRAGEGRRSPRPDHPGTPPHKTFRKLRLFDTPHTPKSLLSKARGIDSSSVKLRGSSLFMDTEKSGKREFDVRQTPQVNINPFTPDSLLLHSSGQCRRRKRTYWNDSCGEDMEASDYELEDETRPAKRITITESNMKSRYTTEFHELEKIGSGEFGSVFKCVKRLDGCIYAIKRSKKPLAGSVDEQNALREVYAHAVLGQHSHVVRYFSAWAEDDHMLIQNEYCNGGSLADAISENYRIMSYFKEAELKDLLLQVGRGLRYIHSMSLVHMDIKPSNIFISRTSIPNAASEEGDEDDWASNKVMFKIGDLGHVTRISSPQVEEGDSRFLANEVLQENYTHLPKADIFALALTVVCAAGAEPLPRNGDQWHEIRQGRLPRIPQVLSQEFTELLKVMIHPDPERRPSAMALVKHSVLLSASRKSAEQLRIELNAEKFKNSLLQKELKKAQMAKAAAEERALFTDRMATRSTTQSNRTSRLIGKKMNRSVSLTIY
T12 sequence (Q86Z02 whole entry): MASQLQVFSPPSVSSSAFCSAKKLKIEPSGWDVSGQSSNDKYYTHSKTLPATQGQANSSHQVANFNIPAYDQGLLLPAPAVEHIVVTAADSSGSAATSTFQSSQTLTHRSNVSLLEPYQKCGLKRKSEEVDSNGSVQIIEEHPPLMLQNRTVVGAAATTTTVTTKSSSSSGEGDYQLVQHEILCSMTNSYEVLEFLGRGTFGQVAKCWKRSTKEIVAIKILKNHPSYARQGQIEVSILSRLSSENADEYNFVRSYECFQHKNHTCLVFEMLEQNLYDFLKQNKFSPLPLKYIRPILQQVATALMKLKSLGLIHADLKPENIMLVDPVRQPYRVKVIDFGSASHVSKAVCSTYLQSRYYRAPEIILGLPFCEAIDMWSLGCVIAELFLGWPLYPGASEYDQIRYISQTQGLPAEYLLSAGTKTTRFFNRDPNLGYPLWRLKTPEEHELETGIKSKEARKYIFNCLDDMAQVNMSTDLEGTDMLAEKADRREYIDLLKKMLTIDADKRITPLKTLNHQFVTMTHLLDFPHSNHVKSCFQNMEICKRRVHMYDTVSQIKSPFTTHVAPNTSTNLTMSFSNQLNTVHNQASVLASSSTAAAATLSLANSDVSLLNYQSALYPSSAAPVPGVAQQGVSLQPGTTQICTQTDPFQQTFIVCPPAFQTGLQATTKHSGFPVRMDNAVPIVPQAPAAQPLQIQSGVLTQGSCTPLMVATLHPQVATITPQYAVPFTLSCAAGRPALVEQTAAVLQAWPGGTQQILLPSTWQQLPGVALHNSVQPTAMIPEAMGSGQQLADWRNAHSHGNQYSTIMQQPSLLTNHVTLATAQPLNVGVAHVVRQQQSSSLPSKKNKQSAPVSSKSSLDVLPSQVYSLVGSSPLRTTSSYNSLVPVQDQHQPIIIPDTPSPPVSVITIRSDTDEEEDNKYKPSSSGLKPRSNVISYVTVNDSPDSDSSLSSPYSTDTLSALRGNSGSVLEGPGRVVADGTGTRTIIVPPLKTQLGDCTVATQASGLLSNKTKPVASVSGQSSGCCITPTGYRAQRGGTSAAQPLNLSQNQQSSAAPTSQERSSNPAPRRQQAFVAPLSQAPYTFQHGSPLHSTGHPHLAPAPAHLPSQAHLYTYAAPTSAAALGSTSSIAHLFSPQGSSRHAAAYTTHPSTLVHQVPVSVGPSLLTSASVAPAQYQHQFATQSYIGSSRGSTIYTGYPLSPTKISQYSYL
T2 sequence (O15111 whole entry): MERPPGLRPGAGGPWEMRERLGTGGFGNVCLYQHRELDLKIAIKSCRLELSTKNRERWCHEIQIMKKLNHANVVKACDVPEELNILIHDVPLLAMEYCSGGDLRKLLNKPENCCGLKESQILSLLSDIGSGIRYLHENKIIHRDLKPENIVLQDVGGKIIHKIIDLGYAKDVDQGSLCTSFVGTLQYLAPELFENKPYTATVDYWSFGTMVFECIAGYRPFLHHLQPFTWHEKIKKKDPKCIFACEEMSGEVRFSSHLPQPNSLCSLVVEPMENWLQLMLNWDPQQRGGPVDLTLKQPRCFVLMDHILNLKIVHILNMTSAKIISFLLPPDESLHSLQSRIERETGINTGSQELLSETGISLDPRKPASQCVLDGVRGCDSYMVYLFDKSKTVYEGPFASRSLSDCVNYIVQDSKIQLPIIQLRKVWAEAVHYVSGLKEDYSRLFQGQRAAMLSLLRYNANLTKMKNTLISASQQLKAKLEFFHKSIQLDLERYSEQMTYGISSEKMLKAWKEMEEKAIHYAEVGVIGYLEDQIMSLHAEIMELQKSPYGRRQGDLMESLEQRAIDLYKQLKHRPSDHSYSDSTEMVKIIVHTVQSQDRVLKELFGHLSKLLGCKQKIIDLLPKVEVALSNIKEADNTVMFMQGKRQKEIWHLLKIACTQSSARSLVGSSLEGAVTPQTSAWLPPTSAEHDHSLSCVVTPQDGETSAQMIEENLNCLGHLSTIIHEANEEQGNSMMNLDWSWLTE
T14 sequence (P53671 whole entry): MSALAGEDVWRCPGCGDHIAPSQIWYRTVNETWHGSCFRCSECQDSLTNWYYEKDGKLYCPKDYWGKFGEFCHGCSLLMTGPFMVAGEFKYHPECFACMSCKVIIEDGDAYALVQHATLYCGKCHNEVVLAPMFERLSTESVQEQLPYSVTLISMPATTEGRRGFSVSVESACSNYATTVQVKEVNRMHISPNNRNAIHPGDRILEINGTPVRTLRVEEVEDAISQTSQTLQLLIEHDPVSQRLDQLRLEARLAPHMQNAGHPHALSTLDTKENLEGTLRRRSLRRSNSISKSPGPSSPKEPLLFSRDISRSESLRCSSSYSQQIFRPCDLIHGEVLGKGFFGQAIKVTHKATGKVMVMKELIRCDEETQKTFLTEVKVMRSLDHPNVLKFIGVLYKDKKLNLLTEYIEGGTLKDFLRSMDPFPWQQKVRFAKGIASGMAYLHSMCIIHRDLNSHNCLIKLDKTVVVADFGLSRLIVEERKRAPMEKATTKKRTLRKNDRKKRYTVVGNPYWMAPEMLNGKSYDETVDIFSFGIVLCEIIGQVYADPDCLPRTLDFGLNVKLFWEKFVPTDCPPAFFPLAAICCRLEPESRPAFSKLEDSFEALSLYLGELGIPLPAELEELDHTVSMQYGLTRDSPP
T9 sequence (P45985 whole entry): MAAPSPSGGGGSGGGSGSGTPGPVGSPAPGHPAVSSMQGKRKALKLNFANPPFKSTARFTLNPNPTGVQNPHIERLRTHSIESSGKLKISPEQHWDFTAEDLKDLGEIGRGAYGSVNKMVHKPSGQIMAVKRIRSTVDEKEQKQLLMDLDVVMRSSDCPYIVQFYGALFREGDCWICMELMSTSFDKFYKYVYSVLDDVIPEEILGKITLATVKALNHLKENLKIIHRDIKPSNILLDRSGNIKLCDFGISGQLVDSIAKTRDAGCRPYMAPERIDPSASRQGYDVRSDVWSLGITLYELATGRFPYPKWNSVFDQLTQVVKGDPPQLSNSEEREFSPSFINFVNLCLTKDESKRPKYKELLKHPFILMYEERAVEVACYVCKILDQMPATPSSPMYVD
T16 sequence (Q86YV6 whole entry): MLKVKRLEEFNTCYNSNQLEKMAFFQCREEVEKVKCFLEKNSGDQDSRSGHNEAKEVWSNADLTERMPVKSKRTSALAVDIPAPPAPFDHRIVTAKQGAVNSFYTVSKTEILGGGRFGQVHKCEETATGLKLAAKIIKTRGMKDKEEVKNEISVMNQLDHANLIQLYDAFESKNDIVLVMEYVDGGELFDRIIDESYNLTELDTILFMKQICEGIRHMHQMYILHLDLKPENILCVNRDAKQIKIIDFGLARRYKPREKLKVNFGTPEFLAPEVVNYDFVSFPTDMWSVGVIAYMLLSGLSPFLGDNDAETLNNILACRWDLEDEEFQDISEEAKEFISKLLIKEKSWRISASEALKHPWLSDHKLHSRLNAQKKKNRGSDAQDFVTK

With `C#Cc1cccc(Nc2ncnc3cc(OC)c(OCCCN4CCOCC4)cc23)c1` [NRC-2694, N-(3-ethylnylphenyl)-7-methoxy-6-[3-(4-morpholinyl)propoxy]-4-quinazolinamine] the “% Ctrl @ 10000 nM” value [1] was 8.1 % Ctrl, the “% Ctrl @ 10000 nM” value [2] was 41 % Ctrl and the “% Ctrl @ 10000 nM” value [3] was 80 % Ctrl. The “% Ctrl @ 10000 nM” value [4] was 9.6 % Ctrl, the “% Ctrl @ 10000 nM” value [5] was 100 % Ctrl and the “% Ctrl @ 10000 nM” value [6] was 73 % Ctrl. For the same compound, the “% Ctrl @ 10000 nM” value [7] was 100 % Ctrl, the “% Ctrl @ 10000 nM” value [8] was 76 % Ctrl and the “% Ctrl @ 10000 nM” value [9] was 92 % Ctrl. For the same compound, the “% Ctrl @ 10000 nM” value [10] was 56 % Ctrl, the “% Ctrl @ 10000 nM” value [11] was 74 % Ctrl and the “% Ctrl @ 10000 nM” value [12] was 70 % Ctrl. The “% Ctrl @ 10000 nM” value [13] was 65 % Ctrl, the “% Ctrl @ 10000 nM” value [14] was 100 % Ctrl and the “% Ctrl @ 10000 nM” value [15] was 3.8 % Ctrl. The “% Ctrl @ 10000 nM” value [16] was 84 % Ctrl, the “% Ctrl @ 10000 nM” value [17] was 75 % Ctrl and the “% Ctrl @ 10000 nM” value [18] was 44 % Ctrl. For the same compound, the “% Ctrl @ 10000 nM” value [19] was 50 % Ctrl, the “% Ctrl @ 10000 nM” value [20] was 12 % Ctrl and the “% Ctrl @ 10000 nM” value [21] was 25 % Ctrl. The “% Ctrl @ 10000 nM” value [22] was 0 % Ctrl.
